Laboratory results published in ChEMBL document CHEMBL6078614, “Privileged small molecules against neglected tropical diseases: A perspective from structure activity relationships” (Eur J Med Chem, 2024).
Values after ≈ are worked out from the molar mass of the structure shown. Values belong to the molecule of their own block, whether it stands above or below them.

Columns and labels:
Leishmania major [1] = experiment: Antileishmanial activity against Leishmania major amastigotes assessed as inhibition of parasite growth incubated for 48 hrs by alamar blue reagent based ELISA; assay type: functional, organism-based
Phosphodiesterase 4 = Phosphodiesterase 4 (Homo sapiens, UniProt P27815+Q08499+Q07343+Q08493); experiment: Inhibition of PDE4 (unknown origin); assay type: protein assay
[2] = tested on: Trypanosoma brucei rhodesiense; experiment: Antitrypanosomal activity against Trypanosoma brucei rhodesiense; assay type: functional, organism-based
Leishmania donovani [3] = experiment: Antileishmanial activity against Leishmania donovani amastigotes infected in J774 macrophage assessed as inhibition of parasite growth incubated for 48 hrs by luciferase assay; assay type: functional, organism-based; settings: J774, 48 h
Leishmania major [4] = experiment: Antileishmanial activity against Leishmania major; assay type: functional, organism-based
Entamoeba histolytica = experiment: Antiparasitic activity against Entamoeba histolytica; assay type: functional, organism-based
HeLa = experiment: Cytotoxicity against human HeLa cells assessed as reduction in cell viability incubated for 24 hrs by MTT assay; assay type: functional
Trypanosoma cruzi [5] = experiment: Antitrypanosomal activity against trypomastigote form of Trypanosoma cruzi Y assessed as inhibition of parasite viability; assay type: functional, organism-based
Leishmania mexicana [6] = experiment: Antileishmanial activity against Leishmania mexicana promastigotes assessed as reduction in parasite growth by alamar-blue staining based analysis; assay type: functional, organism-based
Trypanosoma cruzi [7] = experiment: Antitrypanosomal activity against Trypanosoma cruzi Tulahuen amastigotes; assay type: functional, organism-based
[8] = Inhibition of Entamoeba histolytica O-acetylserine sulfhydrylase
Leishmania donovani [9] = experiment: Antileishmanial activity against Leishmania donovani promastigotes measured after 48 hrs by MTT assay; assay type: functional, organism-based
Leishmania amazonensis = experiment: Antileishmanial activity against Leishmania amazonensis amastigotes assessed as parasite growth inhibition; assay type: functional, organism-based
Leishmania chagasi = experiment: Antileishmanial activity against Leishmania chagasi; assay type: functional, organism-based
Leishmania infantum = experiment: Inhibition of Leishmania infantum Arginase expressed in Escherichia coli BL21 (DE3) at 50 uM by enzymatic assay relative to control
Leishmania donovani [10] = experiment: Antileishmanial activity against amastigote form of Leishmania donovani infected in BALB/c mouse assessed as inhibition of parasite growth in spleen at 25 mg/kg, po measured after 5 days by geimsa staining based analysis relative to control; assay type: functional; set-up: scale not given: the % may be the effect or the level left; settings: time 5 day
HepG2 = experiment: Cytotoxicity against human HepG2 cells assessed as reduction in cell viability by MTT assay; assay type: functional
Leishmania mexicana [11] = experiment: Antileishmanial activity against Leishmania mexicana promastigotes
Trypanosoma cruzi [12] = experiment: Antiprotozoal activity against Trypanosoma cruzi epimastigotes assessed as reduction in parasite growth; assay type: functional, organism-based
Leishmania major [13] = experiment: Antileishmanial activity against Leishmania major IR-173 promastigotes assessed as inhibition of parasite growth incubated for 24 hrs by resazurin dye based assay; assay type: functional, organism-based; settings: IR-173, 24 h
Leishmania major [14] = experiment: Antileishmanial activity against Leishmania major IR-173 promastigotes assessed as inhibition of parasite growth incubated for 48 hrs by resazurin dye based assay; assay type: functional, organism-based; settings: IR-173, 48 h
Leishmania major [15] = experiment: Antileishmanial activity against Leishmania major promastigotes assessed as inhibition of parasite growth incubated for 48 hrs by resazurin dye based assay; assay type: functional, organism-based
Leishmania major [16] = experiment: Antileishmanial activity against Leishmania major promastigotes assessed as inhibition of parasite growth; assay type: functional, organism-based
Trypanosoma brucei = experiment: Antitrypanosomal activity against Trypanosoma brucei; assay type: functional, organism-based
Leishmania braziliensis = experiment: Antileishmanial activity against Leishmania braziliensis; assay type: functional, organism-based
L929 = experiment: Cytotoxicity against mouse L929 cells assessed as reduction in cell viability; assay type: functional
Trypanosoma cruzi [17] = experiment: Antitrypanosomal activity against trypomastigote form of Trypanosoma cruzi Y assessed as inhibition of parasite viability incubated for 24 hrs by light microscopy; assay type: functional, organism-based

Compound: Cc1ccn2c(C(=O)N3CCN(CCn4cc(-c5ccc(C(C)(C)C)cc5)nn4)CC3)c(C)nc2c1
IC50 (Leishmania major [1]): 15.1 µM

Compound: COC(=O)c1nc(NC(=O)c2cc(NC(=O)c3nc(NC(=O)OC(C)(C)C)sc3C(C)C)cn2C)sc1C(C)C
EC50 [2]: 11.8 µM

Compound: O=C(Nc1nc2cc(Cl)ccc2o1)C(c1ccccc1)c1ccccc1
IC50 (Leishmania donovani [3]): 9.1 µM

Compound: CC(C)c1ccc(S(=O)(=O)/N=N/Cc2ccc([N+](=O)[O-])o2)cc1
IC50 (Leishmania major [1]): 4.71 µM

Compound: O=[N+]([O-])c1ccc(-c2nnc(N3CCC(O)CC3)s2)o1
IC50 (Leishmania major [4]): 68.9 µM

Compound: Cc1ccn2c(C(=O)N3CCN(CCc4cn(-c5cccc(Cl)c5)nn4)CC3)c(C)nc2c1
IC50 (Leishmania major [1]): 15.1 µM
CC50 (HeLa): 62.7 µM

Compound: c1ccc(-c2cnc3c(n2)CCCC3)cc1
IC50 (Leishmania mexicana [6]): 39.8 µM

Compound: Cc1cccnc1-n1cccc1C(=O)c1ccc(F)cc1
IC50 (Leishmania donovani [9]): 7.78 µM
IC50 (Leishmania amazonensis): 16.9 µM

Compound: O=C(Cn1nnc2ccccc21)NNCc1ccccc1Cl
Activity (Leishmania donovani [10]): 89.4%

Compound: N=C(S)N/N=C/c1ccc(C(F)(F)F)cc1
IC50 (Leishmania chagasi): 3.2 µM

Compound: O=[N+]([O-])c1c(CS(=O)(=O)c2ccccc2)nc2c(Sc3ccc(Cl)cc3)cc(Cl)cn12
IC50 (Leishmania donovani [3]): 1.3 µM
CC50 (HepG2): > 100 µM

Compound: O=C1c2ccccc2C(=O)N1CCn1cc(-c2ccccc2)nn1
IC50 (Leishmania amazonensis): 125 µM

Compound: c1ccc(-c2cnc3ccccc3n2)cc1
IC50 (Leishmania mexicana [6]): 12.5 µM

Compound: CC1CS(=O)(=O)CCN1/N=C/c1ccc([N+](=O)[O-])o1 (centres undefined) [NIFURTIMOX]
IC50 (Leishmania mexicana [11]): 9.32 µM

Compound: CCCCCCCCCCCCCCCCOP(=O)([O-])OCC[N+](C)(C)C [MILTEFOSINE]
Activity (Leishmania donovani [10]): >98%

Compound: Cn1ccnc1-c1nnc(-c2ccc([N+](=O)[O-])s2)s1
IC50 (Leishmania major [13]): 11.2 µg/mL (≈ 38.2 µM)
IC50 (Leishmania major [14]): 7.1 µg/mL (≈ 24.2 µM)

Compound: C[C@@H]1[C@H](O)[C@@H](C)/C=C/C=C/C=C/C=C/C=C/C=C/C=C/[C@H](O[C@@H]2O[C@H](C)[C@@H](O)[C@H](N)[C@@H]2O)C[C@@H]2O[C@](O)(C[C@@H](O)C[C@@H](O)[C@H](O)CC[C@@H](O)C[C@@H](O)CC(=O)O[C@H]1C)C[C@H](O)[C@H]2C(=O)O [AMPHOTERICIN B]
IC50 (Leishmania major [15]): 0.19 µg/mL (≈ 0.206 µM)

Compound: COc1ccc(/C=N/NC(N)=S)cc1
IC50 (Leishmania chagasi): 1.6 µM

Compound: N=C(N)N/N=C/c1cccc(Cl)c1Cl
IC50 (Leishmania chagasi): 7.27 µM

Compound: NNS(=O)(=O)c1ccc([N+](=O)[O-])o1
IC50 (Leishmania major [1]): 5.75 µM
IC50 (Leishmania major [16]): 1.85 µM

Compound: Cc1ncc([N+](=O)[O-])n1CCOC(=O)NC1CCCCC1
IC50 (Entamoeba histolytica): 0.46 µM

Compound: O=[N+]([O-])c1ccc(-c2nnc(NCCCO)s2)o1
IC50 (Leishmania major [4]): 18 µM

Compound: COc1ccc2nc(-c3ccccc3)cnc2c1
IC50 (Leishmania mexicana [6]): 50.9 µM

Compound: O=C(Nc1ccc2c(c1)CN(c1ccc(Br)cc1)C2=O)N1CCN(c2ccc(F)cc2)CC1
IC50 (Trypanosoma cruzi [12]): 0.05 µM

Compound: N/C(S)=N/N=C/c1cccc(Cl)c1Cl
IC50 (Leishmania chagasi): 2.2 µM

Compound: CCCCCCCCCc1cn(CCN2CCN(C(=O)c3c(C)nc4cc(C)ccn34)CC2)nn1
IC50 (Leishmania major [1]): 15.1 µM

Compound: Clc1ccc(-n2cc(C3=NCCS3)cn2)c(Cl)c1
IC50 (Trypanosoma cruzi [5]): 0.4 µM

Compound: Cc1ccn2c(C(=O)N3CCN(CCc4cn(-c5ccc(Br)cc5)nn4)CC3)c(C)nc2c1
IC50 (Leishmania major [1]): 15.1 µM

Compound: O=[N+]([O-])c1ccc(-c2nnc(N3CCC(O)CC3)s2)s1
IC50 (Leishmania major [4]): 27 µM

Compound: NCCCC(N)(C(=O)O)C(F)F (centres undefined) [EFLORNITHINE]
EC50 (Trypanosoma brucei): 13 µM

Compound: O=c1[nH]c2cc(Cl)c(Cl)cc2c(=O)n1-c1ccccc1
IC50 (Leishmania mexicana [6]): 6.05 µM

Compound: CCc1ccc(-n2cc(CCN3CCN(C(=O)c4c(C)nc5cc(C)ccn45)CC3)nn2)cc1
IC50 (Leishmania major [1]): 15.1 µM

The next lines start with results.

pIC50 (Phosphodiesterase 4): 6.4
Compound: COc1ccc(C2=NN(C(C)C)C(=O)C2(C)C)cc1-c1cccnc1

IC50 (Entamoeba histolytica): 0.22 µM
Compound: O=C(O)Cc1ccccc1Nc1c(Cl)cccc1Cl [DICLOFENAC]

IC50 (Trypanosoma cruzi [5]): 2.1 µM
Compound: Brc1ccc(-n2cc(C3=NCCS3)cn2)cc1

EC50 (Trypanosoma cruzi [7]): 0.73 µM
Compound: O=C(Nc1cc2nc(-c3ccc(F)c(F)c3)cn2cn1)N1CC[C@H](F)C1

IC50 [8]: 140 µg/mL
Compound: CC(C)(C)Nc1c(-c2cc3ccccc3n3nnnc23)nc2sc(C#N)cn12

IC50 (Leishmania major [4]): 38.5 µg/mL
Compound: Cc1ccc(C(=O)NC(=S)NCc2ccco2)cc1

IC50 (Leishmania chagasi): 32.4 µM
inhibition (Leishmania infantum): 67%
Compound: O=C(NCCNc1nccc(-c2c(-c3cccc(O)c3)nc3sccn23)n1)c1ccc(N2CCOCC2)c(C(F)(F)F)c1

pIC50 (Phosphodiesterase 4): 5.8
Compound: COc1ccc(C2=NN(C(C)C)C(=O)C2(C)C)cc1-c1ccncc1

pIC50 (Phosphodiesterase 4): 6.8
Compound: COc1ccc(C2=NN(C(C)C)C(=O)C2(C)C)cc1OCc1ccccc1

EC50 (Trypanosoma cruzi [7]): 0.02 µM
Compound: Cc1nc(C)c(C(=O)Nc2ccc(F)c(-c3nc4ncc(-c5ccccc5Cl)cn4n3)c2)o1

IC50 ([8]; read-out: IC50): 15 µM
Compound: Cc1c(OCC(F)(F)F)ccnc1C[S+]([O-])c1nc2ccc([N+](=O)[O-])cc2[nH]1 (centres undefined)

IC50 (Trypanosoma cruzi [12]): 0.04 µM
Compound: Cc1ccc(N2Cc3cc(NC(=O)N4CCN(c5cccc(C(F)(F)F)c5)CC4)ccc3C2=O)cc1

IC50 (Entamoeba histolytica): 0.14 µM
Compound: COc1ccc2cc([C@H](C)C(=O)O)ccc2c1 [NAPROXEN]

IC50 (Leishmania major [4]): 38.5 µg/mL
Compound: COc1ccc(C(=O)NC(=S)Nc2nc(-c3ccccc3)c(C)s2)cc1

IC50 (Leishmania chagasi): 30 µM
inhibition (Leishmania infantum): 69.2%
Compound: COc1cccc(-c2nc3sccn3c2-c2ccnc(NCCNC(=O)Nc3cccc(C(F)(F)F)c3)n2)c1

EC50 (Trypanosoma cruzi [7]): 0.08 µM
Compound: O=C(Nc1cc2nc(-c3cccc(C(F)(F)F)c3)cn2cn1)N1CC[C@H](F)C1

IC50 (Trypanosoma cruzi [5]): 62 µM
Compound: CN1C(=N)N/C(=C/c2c[nH]c3cc(Br)ccc23)C1=O

IC50 (Entamoeba histolytica): 0.172 µM
Compound: CC(C)Cc1ccc(C(C)C(=O)O)cc1 (centres undefined) [IBUPROFEN]

EC50 (Trypanosoma cruzi [7]): 7.2 µM
Compound: COc1ccc2c(-c3ccnc(Nc4cccc(C#N)c4)n3)c(CO)nn2n1

IC50 (Entamoeba histolytica): 0.145 µM
Compound: CC(C)(Oc1ccc(Cl)cc1)C(=O)O [CLOFIBRIC ACID]

IC50 ([8]; read-out: IC50): 11 µM
Compound: O=[N+]([O-])c1ccc2nc([S+]([O-])Cc3ccccn3)[nH]c2c1 (centres undefined)

EC50 (Trypanosoma cruzi [7]): > 20 µM
Compound: NC(=O)Nc1cc2nc(-c3cccc(C(F)(F)F)c3)cn2cn1

EC50 (Trypanosoma brucei): 1.94 µM
Compound: O=C(Cn1ccnc1[N+](=O)[O-])NCc1ccccc1 [BENZNIDAZOLE]

EC50 (Trypanosoma cruzi [7]): 7.7 µM
Compound: c1cncc(Nc2nccc(-c3cnn4ncccc34)n2)c1

IC50 (Leishmania chagasi): 4.97 µM
Compound: N=C(N)N/N=C/c1ccccc1-c1ccccc1

IC50 (Leishmania chagasi): 0.6 µM
Compound: N=C(N)N/N=C/c1ccc2ccccc2n1

IC50 (Leishmania braziliensis): 8.43 µM
Compound: NNc1nc(-c2ccccc2Cl)nc2ccccc12

IC50 (Leishmania major [4]): 38.5 µg/mL
Compound: Cc1sc(NC(=S)NC(=O)c2cccc(Cl)c2)nc1-c1ccccc1

EC50 [2]: 4.85 µM
Compound: COc1cc(/C=C/C(=O)CC(=O)/C=C/c2ccc(O)c(OC)c2)ccc1O [CURCUMIN]

IC50 (Leishmania braziliensis): 9.37 µM
Compound: CN1CCN(c2nn3c(-c4cccc([N+](=O)[O-])c4)nnc3c3ccccc23)CC1

IC50 (Trypanosoma cruzi [5]): 1.9 µM
Compound: Clc1ccc(-n2cc(C3=NCCS3)cn2)cc1Cl

IC50 (Leishmania braziliensis): 7.41 µM
Compound: NNc1nc(-c2ccc(F)cc2)nc2ccccc12

EC50 (Trypanosoma cruzi [17]): 7 µM
Compound: Cn1c(/C=C/C(=O)NO)ccc1/C=C/C(=O)c1cccc(Cl)c1
CC50 (L929): 40 µM

IC50 (Entamoeba histolytica): 0.22 µM
Compound: COc1ccc2c(c1)c(CC(=O)O)c(C)n2C(=O)c1ccc(Cl)cc1 [INDOMETHACIN]
